Assays:
kale 'Red Russian' [1] = test: Visual injury of kale after insecticide, fungicide, PGRs, safeners (Example 4)
Method in brief: (§1)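 Greenhouse postemergence applications of chlorpyrifos, chlorothalonil, mepiquat-chloride, paclobutrazol, napthalic anhydride or isoxadifen-ethyl. Visual injury (phytotoxicity, chlorosis, stunting) scored 0–100%, 0 = no response, 100 = plant death. Harvest about 4 weeks after treatment; replicates pooled for protein, mineral, amino acid, fiber and fatty acid analysis.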

basil ‘Genovese’ = test: Yield, fresh weight of basil after insecticide, fungicide, PGRs and safeners (Example 4, Table 10); assay type: in vivo; settings: DA-A, check 31.8
Method in brief: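 Plants received postemergence sprays of one insecticide, one fungicide, two PGRs or two safeners in the greenhouse. About 4 weeks later they were harvested, and replicates were pooled for laboratory content analysis. Injury was rated visually on a 0–100% scale.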

kale 'Red Russian' [2] = test: Content analysis of kale: protein, amino acids, fiber, fatty acids, minerals (Example 4, Tables 12-14); assay type: in vivo; settings: 28 DA-A
Method in brief: as §1

[3] = 7 DA-A, rates g ai/ha: chlropyrifos 1120, chlorothalonil 2630, paclobutrazol 3.23, mepiquat-chloride 12.3, + NIS 0.25 % v/v
[4] = 7 DA-A, rates g ai/ha: chlropyrifos 3370, chlorothalonil 7900, paclobutrazol 9.7, mepiquat-chloride 37, + NIS 0.25 % v/v
[5] = 14 DA-A, rates g ai/ha: chlropyrifos 1120, chlorothalonil 2630, paclobutrazol 3.23, mepiquat-chloride 12.3, + NIS 0.25 % v/v
[6] = 14 DA-A, rates g ai/ha: chlropyrifos 3370, chlorothalonil 7900, paclobutrazol 9.7, mepiquat-chloride 37, + NIS 0.25 % v/v
[7] = 28 DA-A, rates g ai/ha: chlropyrifos 1120, chlorothalonil 2630, paclobutrazol 3.23, mepiquat-chloride 12.3, + NIS 0.25 % v/v
[8] = 28 DA-A, rates g ai/ha: chlropyrifos 3370, chlorothalonil 7900, paclobutrazol 9.7, mepiquat-chloride 37, + NIS 0.25 % v/v
[9] = first-listed rate g ai/ha: chlropyrifos ###, chlorothalonil ###, paclobutrazol 3.2, mepiquat-chloride 12, + NIS 0.3 % v/v
[10] = rates g ai/ha: chlropyrifos 1120, chlorothalonil 2630, paclobutrazol 3.23, mepiquat-chloride 12.3, + NIS 0.25 % v/v
[11] = rates g ai/ha: chlropyrifos 3370, chlorothalonil 7900, paclobutrazol 9.7, mepiquat-chloride 37, + NIS 0.25 % v/v
[12] = second-listed rate g ai/ha: chlropyrifos ###, chlorothalonil ###, paclobutrazol 9.7, mepiquat-chloride 37, + NIS 0.3 % v/v

Compound: C[N+]1(C)CCCCC1 [mepiquat-chloride]
- Phytotoxicity Chlorosis (kale 'Red Russian' [1]; [3]): 0%
- Phytotoxicity General (kale 'Red Russian' [1]; [3]): 9%
- Phytotoxicity Stunting (kale 'Red Russian' [1]; [3]): 4%
- Phytotoxicity Chlorosis (kale 'Red Russian' [1]; [4]): 0%
- Phytotoxicity General (kale 'Red Russian' [1]; [4]): 10%
- Phytotoxicity Stunting (kale 'Red Russian' [1]; [4]): 1%
- Phytotoxicity Chlorosis (kale 'Red Russian' [1]; [5]): 15%
- Phytotoxicity General (kale 'Red Russian' [1]; [5]): 1%
- Phytotoxicity Stunting (kale 'Red Russian' [1]; [5]): 16%
- Phytotoxicity Chlorosis (kale 'Red Russian' [1]; [6]): 4%
- Phytotoxicity General (kale 'Red Russian' [1]; [6]): 0%
- Phytotoxicity Stunting (kale 'Red Russian' [1]; [6]): 3%
- Phytotoxicity Chlorosis (kale 'Red Russian' [1]; [7]): 6%
- Phytotoxicity General (kale 'Red Russian' [1]; [7]): 1%
- Phytotoxicity Stunting (kale 'Red Russian' [1]; [7]): 9%
- Phytotoxicity Chlorosis (kale 'Red Russian' [1]; [8]): 3%
- Phytotoxicity General (kale 'Red Russian' [1]; [8]): 3%
- Phytotoxicity Stunting (kale 'Red Russian' [1]; [8]): 10%
- Yield Fresh weight (basil ‘Genovese’; rates g ai/ha: chlropyrifos 1120, chlorothalonil 2630, paclobutrazol 3.23, mepiquat-chloride 12.3, Isoxadifen 8, Napthalic anhydride 264, + NIS 0.25 % v/v): 36.9 grams
- Yield Fresh weight (basil ‘Genovese’; rates g ai/ha: chlropyrifos 3370, chlorothalonil 7900, paclobutrazol 9.7, mepiquat-chloride 37, Isoxadifen 16, Napthalic anhydride 527, + NIS 0.25 % v/v): 35.6 grams
- Alanine, Percent Increase over the Untreated Check (on a % dry matter basis) (kale 'Red Russian' [2]; [9]): 5 % check
- Aspartic acid, Percent Increase over the Untreated Check (on a % dry matter basis) (kale 'Red Russian' [2]; [9]): 6 % check
- Cysteine, Percent Increase over the Untreated Check (on a % dry matter basis) (kale 'Red Russian' [2]; [9]): 6 % check
- Glutamic acid, Percent Increase over the Untreated Check (on a % dry matter basis) (kale 'Red Russian' [2]; [9]): 11 % check
- Glycine, Percent Increase over the Untreated Check (on a % dry matter basis) (kale 'Red Russian' [2]; [9]): 4 % check
- Iso-leucine, Percent Increase over the Untreated Check (on a % dry matter basis) (kale 'Red Russian' [2]; [9]): 6 % check
- Leucine, Percent Increase over the Untreated Check (on a % dry matter basis) (kale 'Red Russian' [2]; [9]): 4 % check
- Lysine, Percent Increase over the Untreated Check (on a % dry matter basis) (kale 'Red Russian' [2]; [9]): 6 % check
- Methionine, Percent Increase over the Untreated Check (on a % dry matter basis) (kale 'Red Russian' [2]; [9]): 4 % check
- Proline, Percent Increase over the Untreated Check (on a % dry matter basis) (kale 'Red Russian' [2]; [9]): 8 % check
- Threonine, Percent Increase over the Untreated Check (on a % dry matter basis) (kale 'Red Russian' [2]; [9]): 6 % check
- Total Amino acids, Percent Increase over the Untreated Check (on a % dry matter basis) (kale 'Red Russian' [2]; [9]): 6 % check
- Total Protein, Percent Increase over the Untreated Check (on a % dry matter basis) (kale 'Red Russian' [2]; [9]): 4 % check
- Valine, Percent Increase over the Untreated Check (on a % dry matter basis) (kale 'Red Russian' [2]; [9]): 5 % check
- ADF, Percent Increase Over the Untreated Check (on a % dry matter basis) (kale 'Red Russian' [2]; [10]): 7 % check
- Calcium, Percent Increase Over the Untreated Check (on a % dry matter basis) (kale 'Red Russian' [2]; [10]): −4 % check
- Copper, Percent Increase Over the Untreated Check (on a % dry matter basis) (kale 'Red Russian' [2]; [10]): 0 % check
- Iron, Percent Increase Over the Untreated Check (on a % dry matter basis) (kale 'Red Russian' [2]; [10]): −5 % check
- Magnesium, Percent Increase Over the Untreated Check (on a % dry matter basis) (kale 'Red Russian' [2]; [10]): −3 % check
- Manganese, Percent Increase Over the Untreated Check (on a % dry matter basis) (kale 'Red Russian' [2]; [10]): −2 % check
- NDF, Percent Increase Over the Untreated Check (on a % dry matter basis) (kale 'Red Russian' [2]; [10]): −2 % check
- Phosphorous, Percent Increase Over the Untreated Check (on a % dry matter basis) (kale 'Red Russian' [2]; [10]): 1 % check
- Potassium, Percent Increase Over the Untreated Check (on a % dry matter basis) (kale 'Red Russian' [2]; [10]): −5 % check
- Sodium, Percent Increase Over the Untreated Check (on a % dry matter basis) (kale 'Red Russian' [2]; [10]): 4 % check
- Zinc, Percent Increase Over the Untreated Check (on a % dry matter basis) (kale 'Red Russian' [2]; [10]): −5 % check
- ADF, Percent Increase Over the Untreated Check (on a % dry matter basis) (kale 'Red Russian' [2]; [11]): −2 % check
- Calcium, Percent Increase Over the Untreated Check (on a % dry matter basis) (kale 'Red Russian' [2]; [11]): −3 % check
- Copper, Percent Increase Over the Untreated Check (on a % dry matter basis) (kale 'Red Russian' [2]; [11]): −6 % check
- Iron, Percent Increase Over the Untreated Check (on a % dry matter basis) (kale 'Red Russian' [2]; [11]): −4 % check
- Magnesium, Percent Increase Over the Untreated Check (on a % dry matter basis) (kale 'Red Russian' [2]; [11]): 0 % check
- Manganese, Percent Increase Over the Untreated Check (on a % dry matter basis) (kale 'Red Russian' [2]; [11]): −7 % check
- NDF, Percent Increase Over the Untreated Check (on a % dry matter basis) (kale 'Red Russian' [2]; [11]): −7 % check
- Phosphorous, Percent Increase Over the Untreated Check (on a % dry matter basis) (kale 'Red Russian' [2]; [11]): 1 % check
- Potassium, Percent Increase Over the Untreated Check (on a % dry matter basis) (kale 'Red Russian' [2]; [11]): −1 % check
- Sodium, Percent Increase Over the Untreated Check (on a % dry matter basis) (kale 'Red Russian' [2]; [11]): 4 % check
- Zinc, Percent Increase Over the Untreated Check (on a % dry matter basis) (kale 'Red Russian' [2]; [11]): −10 % check
- Alanine, Percent Increase over the Untreated Check (on a % dry matter basis) (kale 'Red Russian' [2]; [12]): −4 % check
- Aspartic acid, Percent Increase over the Untreated Check (on a % dry matter basis) (kale 'Red Russian' [2]; [12]): −2 % check

From patent US20110053773A1, “METHODS OF IMPROVING NUTRITIONAL VALUE OF PLANTS” (UNIVERSITY OF TENNESSEE RESEARCH FOUNDATION, priority 2009, published 2011)
